Laboratory results from PMC6627374, “Effects of the Pentapeptide P33 on Memory and Synaptic Plasticity in APP/PS1 Transgenic Mice: A Novel Mechanism Presenting the Protein Fe65 as a Target” (International Journal of Molecular Sciences, 2019).
Where a SMILES comes first, the peptide text is derived from it.

Legend:
[1] = test system: Iba1-positive microglia; experiment: Iba1 immunohistochemistry, microglia density; assay type: in vivo, mouse; conditions: APP/PS1-vehicle vs. WT-vehicle, WT-P33, APP/PS1-P33; HC and CTX; 5 mg∙kg^−1 i.p., six months
Experimental: (§1) For this study, three-month-old male and female WT and APP/PS1 mice (n = 37) were used. Four groups were defined: WT-vehicle (physiological saline) (male n = 4; female n = 6), WT-P33 (male n = 6; female n = 5), APP/PS1-vehicle (male n = 3; female n = 5), and APP/PS1-P33 (male n = 6; female n = 2). Animals were subjected to intraperitoneal (i.p.) injections of P33 (5 mg∙kg^−1) for five days per week, over a course of six months. The mice were kept in groups under constant temperature (23 ± 0.5 °C), lighting (12-h/12-h light/dark cycle, lights on at 7:00 a.m.), and humidity (~50%). Standard mouse chow and tap water were supplied ad libitum. All behavioral experiments were performed in the light period. Handling was done daily at the same time.
Mice (five animals per group) were anaesthetized with chloral-hydrate (1 mg∙kg^−1) and perfused transcardially with PBS, followed by ice-cold 4% paraformaldehyde. The brains were removed, post-fixed in the same fixative, and immersed in a 30% sucrose solution containing 0.01% sodium-azide. […]
Slides were scanned by a digital slide scanner (Mirax Midi, 3DHistech Ltd., Budapest, Hungary), equipped with a Pannoramic Viewer 1.15.4, CaseViewer 2.1 program and a QuantCenter, HistoQuant module (3DHistech Ltd., Budapest, Hungary). For quantification, all of the sections were analyzed. […] Antibody-positive cell types from the ROIs were counted and quantified. […]

[2] = test system: APP/PS1 mice and C57BL/6 wild-type (WT) mice; experiment: Morris water maze (MWM), spatial learning and memory; assay type: in vivo, mouse; conditions: for intersection area with vehicle group (bootstrap 2D contours): vehicle vs P33, 90% contours
Experimental: as §1
The experiment lasted for five days, and was conducted on every occasion in the light period. Mice were tested twice every day when they were allowed to swim until they found the platform. […] Four different starting points were used during the experiment; starting points were changed randomly during the tests. Trajectories of the mice were recorded with a video camera fixed on the ceiling, equipped with the software EthoVision XT8 (Noldus Information Technology, The Netherlands, 2011). The tracking system calculated the time to reach the platform, swimming speed, length of the swimming path (distance), and percentage time spent in each of the four virtual quadrants during the trials.
Behavioral data were analyzed by mixed ANOVA, followed by Fisher’s LSD post hoc tests for multiple comparisons. The classical and modified ANOVA data evaluation methods applied for the raw measurements could detect only some significant effects without explaining their positions. Convenient post hoc analysis methods, like Student’s t-statistics, need a Gaussian distribution of the analysis data. Additionally, only the probability of the false positive decision error can be set up, and the probability of the false negative decision error remains unknown. Therefore, we developed and used nonparametric statistics. The one-response variable data (swimming times) were used to generate a two-variable model: (1) the reciprocal of the slope of the fitted straight line between the swimming time and the days (its negative values close to zero indicate an improvement in the memory and learning functions of the mice from day to day); (2) swimming time data of the last day (closeness to zero indicates an effective learning process). The two variables were combined, and evaluating them together gave more reliable multiple statistical results. […]

For `C[C@@H](N)C(=O)N1CCC[C@@H]1C(=O)N[C@H](C)C(=O)N1CCC[C@@H]1C(=O)N[C@H](CCC(=O)O)C(N)=O` [P33] (HELM PEPTIDE1{[dA].[dP].[dA].[dP].[dE].[am]}$$$$V2.0), the “density of Iba1-positive microglia (in words)” value [1] was “higher in the APP/PS1-vehicle treated mice than in the other groups”, the “permutation test of swimming times vs randomness (in words)” value ([2]; APP/PS1-P33, 50,000 resamples, 1/m and yend) was “significant improvement, as the randomness of the measurements was drastically decreased” and the “intersection area with vehicle group (bootstrap 2D contours)” value ([2]; APP/PS1 groups, % of total areas of both, 50,000 resamples) was “approximately 2%”. For the same compound, the “latency to find the platform, effect of P33 (in words)” value ([2]; APP/PS1 mice, 5 mg∙kg^−1 i.p., six months, MWM five days) was “seemed to have a positive effect on their learning abilities” and the “intersection area with vehicle group (bootstrap 2D contours)” value ([2]; WT groups, % of total area of P33 treatment (vehicle 32%), 50,000 resamples) was 89%.
